Values joined by “and” are separate entries in the source; they are usually repeats but may differ in a detail not shown here. Identical values can stand only once. Toxic doses and inconclusive results are not listed.

This experiment has as its system BDF1 mice, P388 leukemia ip, median survival T/C. Put plainly: NCI In Vivo Anticancer Drug Screen. Data for tumor model P388 Leukemia (intraperitoneal) in B6D2F1 (BDF1) mice. The following applies: endpoint: median survival time, higher = longer survival. In outline: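 Reported as T/C, where T is the survival measurement in dosed animals and C the same measurement in vehicle controls.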

[1] abbreviates: dose: 50.0 mg/kg/injection, schedule: Q04DX003 (ip), vehicle: saline.
[2] abbreviates: dose: 100.0 mg/kg/injection, schedule: Q04DX003 (ip), vehicle: saline.
[3] abbreviates: dose: 100.0 mg/kg/injection, schedule: Q01DX009 (ip), vehicle: Klucel (hydroxypropylcellulose) (HPC).
Setting [4] is: dose: 200.0 mg/kg/injection, schedule: Q01DX009 (ip), vehicle: Klucel (hydroxypropylcellulose) (HPC).
Where [5] appears, read: dose: 400.0 mg/kg/injection, schedule: Q01DX009 (ip), vehicle: Klucel (hydroxypropylcellulose) (HPC).
Where [6] appears, read: dose: 100.0 mg/kg/injection, schedule: Q04DX003 (ip), vehicle: saline with Tween-80.
The mark [7] stands for this setting: dose: 12.5 mg/kg/injection, schedule: Q01DX009 (ip), vehicle: saline with Tween-80.
Setting [8] is: dose: 50.0 mg/kg/injection, schedule: Q01DX009 (ip), vehicle: saline with Tween-80.
Setting [9] is: dose: 100.0 mg/kg/injection, schedule: Q01DX009 (ip), vehicle: saline with Tween-80.
[10] abbreviates: dose: 50.0 mg/kg/injection, schedule: Q01DX009 (ip), vehicle: Klucel (hydroxypropylcellulose) (HPC).
The mark [11] stands for this setting: dose: 100.0 mg/kg/injection, schedule: Q04DX003 (ip), vehicle: Klucel (hydroxypropylcellulose) (HPC).
The mark [12] stands for this setting: dose: 200.0 mg/kg/injection, schedule: Q04DX003 (ip), vehicle: Klucel (hydroxypropylcellulose) (HPC).
Where [13] appears, read: dose: 400.0 mg/kg/injection, schedule: Q04DX003 (ip), vehicle: Klucel (hydroxypropylcellulose) (HPC).
The mark [14] stands for this setting: dose: 25.0 mg/kg/injection, schedule: Q01DX009 (ip), vehicle: Klucel (hydroxypropylcellulose) (HPC).
The mark [15] stands for this setting: dose: 200.0 mg/kg/injection, schedule: Q01DX009 (ip), vehicle: saline with Tween-80.
The mark [16] stands for this setting: dose: 200.0 mg/kg/injection, schedule: Q04DX003 (ip), vehicle: saline with Tween-80.
Setting [17] is: dose: 25.0 mg/kg/injection, schedule: Q04DX003 (ip), vehicle: Klucel (hydroxypropylcellulose) (HPC).
The mark [18] stands for this setting: dose: 50.0 mg/kg/injection, schedule: Q04DX003 (ip), vehicle: Klucel (hydroxypropylcellulose) (HPC).

Turning to `CCOC(=O)NC(=O)CC`, the T/C is 114 % of control (dose: 25.0 mg/kg/injection, schedule: Q01DX005 (ip), vehicle: saline); 102 % of control (dose: 25.0 mg/kg/injection, schedule: Q01DX009 (ip), vehicle: saline); 114 % of control (dose: 50.0 mg/kg/injection, schedule: Q01DX005 (ip), vehicle: saline); 102 % of control (dose: 50.0 mg/kg/injection, schedule: Q01DX009 (ip), vehicle: saline); 103 % of control and 104 % of control under setting [1]; 96 % of control (dose: 100.0 mg/kg/injection, schedule: Q01DX005 (ip), vehicle: saline). The T/C is 115 % of control (dose: 100.0 mg/kg/injection, schedule: Q01DX009 (ip), vehicle: saline); 96 % of control and 103 % of control and 213 % of control under setting [2]; 122 % of control (dose: 200.0 mg/kg/injection, schedule: Q01DX005 (ip), vehicle: saline); 112 % of control (dose: 200.0 mg/kg/injection, schedule: Q01DX009 (ip), vehicle: saline); 105 % of control and 112 % of control and 114 % of control (dose: 200.0 mg/kg/injection, schedule: Q04DX003 (ip), vehicle: saline); 106 % of control (dose: 400.0 mg/kg/injection, schedule: Q01DX009 (ip), vehicle: saline). In addition, the T/C is, setting by setting: (dose: 400.0 mg/kg/injection, schedule: Q04DX003 (ip), vehicle: saline) 99 % of control and 113 % of control; (dose: 600.0 mg/kg/injection, schedule: Q04DX003 (ip), vehicle: saline) 114 % of control.

With `CC[P+]1(c2ccccc2)CCCc2ccc3ccccc3c21` (stereo not given), the T/C (dose: 1.56 mg/kg/injection, schedule: Q01DX009 (ip), vehicle: saline) was 116 % of control; the T/C (dose: 3.12 mg/kg/injection, schedule: Q01DX009 (ip), vehicle: saline) was 120 % of control; the T/C (dose: 30.0 mg/kg/injection, schedule: Q01DX009 (ip), vehicle: saline) is 90 % of control.

For the compound `CCOC(=O)CCC(NC(=O)Cc1ccc(NC(=O)C(F)(F)F)cc1)C(=O)OCC` (stereo not given), the T/C reads like this: under setting [3], 100 % of control; under setting [4], 95 % of control; under setting [5], 104 % of control.

In the case of `CCSc1ncc(Br)c(Sc2nc(N)nc3nc[nH]c23)n1`, the T/C under setting [6] was 86 % of control.

Take `NC1CCCCC1.[O]=[Cr](=[O])([OH])[OH]`: the T/C was 100 % of control (dose: 6.25 mg/kg/injection, schedule: Q01DX009 (ip), vehicle: saline) and 90 % of control (dose: 12.5 mg/kg/injection, schedule: Q01DX009 (ip), vehicle: saline).

In the case of `CN(C)c1ccc(-c2cc(C(=O)O)c3cc4ccccc4cc3n2)cc1`, the T/C is, setting by setting: under setting [7], 97 % of control; (dose: 25.0 mg/kg/injection, schedule: Q01DX009 (ip), vehicle: saline with Tween-80) 97 % of control; under setting [8], 94 % of control and 102 % of control; under setting [9], 98 % of control and 104 % of control.

Consider `O=C(O)COc1c(Br)cc(Br)cc1Br`, for which the T/C was 90 % of control under setting [10], 90 % of control under setting [3] and 110 % of control under setting [4].

On to `COC(OC)c1[nH]c(=S)[nH]c(=O)c1Cc1cccc(Cl)c1`, for which the T/C reads like this: (dose: 100.0 mg/kg/injection, schedule: Q01DX001 (ip), vehicle: Klucel (hydroxypropylcellulose) (HPC)) 109 % of control; under setting [3], 122 % of control; under setting [11], 113 % of control; (dose: 200.0 mg/kg/injection, schedule: Q01DX001 (ip), vehicle: Klucel (hydroxypropylcellulose) (HPC)) 104 % of control; under setting [12], 100 % of control; (dose: 400.0 mg/kg/injection, schedule: Q01DX001 (ip), vehicle: Klucel (hydroxypropylcellulose) (HPC)) 104 % of control. Moreover, the T/C by setting is: under setting [5], 100 % of control; under setting [13], 95 % of control.

`COC1CCC(OC2CC(C3(C)CCC4(CC(O)C(C)C(C(C)/C=C(\C)C(=O)C(C)CC(C)C(=O)O)O4)O3)OC3(OC(C4OC(O)(CO)C(C)CC4C)CC3C)C2C)OC1C` (stereo not given): the T/C was 111 % of control (dose: 62.5 micrograms/kg/injection, schedule: Q01DX009 (ip), vehicle: Klucel (hydroxypropylcellulose) (HPC)); 97 % of control (dose: 125.0 micrograms/kg/injection, schedule: Q01DX009 (ip), vehicle: Klucel (hydroxypropylcellulose) (HPC)); 97 % of control (dose: 250.0 micrograms/kg/injection, schedule: Q01DX009 (ip), vehicle: Klucel (hydroxypropylcellulose) (HPC)); 97 % of control (dose: 500.0 micrograms/kg/injection, schedule: Q01DX009 (ip), vehicle: Klucel (hydroxypropylcellulose) (HPC)).

With `Cc1ccc(NS(=O)(=O)c2ccc([N+](=O)[O-])cc2)cc1`, the T/C reads like this: under setting [7], 90 % of control; (dose: 33.0 mg/kg/injection, schedule: Q01DX009 (ip), vehicle: saline with Tween-80) 100 % of control; under setting [8], 90 % of control and 100 % of control; (dose: 75.0 mg/kg/injection, schedule: Q01DX009 (ip), vehicle: saline with Tween-80) 95 % of control; under setting [9], 100 % of control.

Take `CC(=O)Nc1ccc(OCCOC(=O)Nc2c(Cl)cccc2Cl)cc1`: the T/C is 111 % of control under setting [14], 100 % of control under setting [10] and 100 % of control under setting [3].

For `CC(=O)Nc1ccc(S(=O)(=O)F)cc1[N+](=O)[O-]`, the T/C is 100 % of control (dose: 25.0 mg/kg/injection, schedule: Q04DX003 (ip), vehicle: saline); 100 % of control under setting [1]; 115 % of control under setting [2].

With `C/C(=C\c1ccc(Cl)cc1)C(C)(C)C(=O)O`, the T/C by setting is: under setting [8], 104 % of control; under setting [9], 102 % of control; under setting [15], 95 % of control.

`COc1cc(C(=O)C=C(C(F)(F)F)C(F)(F)F)cc(OC)c1OC`: the T/C (dose: 50.0 mg/kg/injection, schedule: Q04DX003 (ip), vehicle: saline with Tween-80) is 120 % of control; the T/C under setting [6] is 120 % of control; the T/C under setting [16] is 100 % of control.

On to `Cc1ccc2c(c1)CN(Cc1ccccc1)CO2`, for which the T/C was 104 % of control under setting [11], 100 % of control under setting [12] and 100 % of control under setting [13].

For the compound `COC(=O)c1cc([N+](=O)[O-])c(Cl)c([N+](=O)[O-])c1`, the T/C is 109 % of control (dose: 6.25 mg/kg/injection, schedule: Q01DX009 (ip), vehicle: Klucel (hydroxypropylcellulose) (HPC)); 104 % of control (dose: 12.5 mg/kg/injection, schedule: Q01DX009 (ip), vehicle: Klucel (hydroxypropylcellulose) (HPC)); 100 % of control under setting [14]; 100 % of control under setting [17]; 105 % of control under setting [18].

Regarding `CCOC(=O)C12CC=CC(CCC1)C2=O` (stereo not given) (tested in a mixture with another compound), the T/C under setting [9] was 100 % of control; the T/C under setting [6] is 90 % of control; the T/C under setting [15] is 104 % of control; the T/C under setting [16] is 95 % of control; the T/C (dose: 400.0 mg/kg/injection, schedule: Q01DX009 (ip), vehicle: saline with Tween-80) is 90 % of control; the T/C (dose: 400.0 mg/kg/injection, schedule: Q04DX003 (ip), vehicle: saline with Tween-80) was 104 % of control.

In the case of `CC1OC(n2ccc(NC(=O)c3ccc(NC(=O)C(C)(N)CO)cc3)nc2=O)CC(O)C1OC1OC(C)C(N(C)C)C(O)C1O` (stereo not given), the T/C is 106 % of control (dose: 2.5 mg/kg/injection, schedule: Q01DX009 (ip), vehicle: saline); 103 % of control (dose: 5.0 mg/kg/injection, schedule: Q01DX009 (ip), vehicle: saline); 111 % of control (dose: 10.0 mg/kg/injection, schedule: Q01DX009 (ip), vehicle: saline).

Take `O=C(CBr)c1cccc(OC(=O)c2ccccc2)c1`: the T/C is 96 % of control under setting [17] and 88 % of control under setting [18].

As to `C#CC(C)(C)NC(=O)NC12CC3CC(CC(C3)C1)C2`, the T/C is 88 % of control (dose: 200.0 mg/kg/injection, schedule: Q01DX001 (ip), vehicle: saline with Tween-80) and 95 % of control (dose: 400.0 mg/kg/injection, schedule: Q01DX001 (ip), vehicle: saline with Tween-80).

(Values after PubChem BioAssay AID328 (DTP/NCI, 2004).)
